From US8785452B2, “Anti-infective compounds” (priority 2008, dated 2014)
Where two headings read alike, the source gives them in different places.

System: M. tuberculosis H37Rv-GFP
Experiment: microbe, parasite or virus in culture
Format: cell-based, Mycobacterium tuberculosis
Details: Mycobacterium tuberculosis, H37RV, Macrophage
[1] = confirmation, 20 uM, intracellular, read-out: QIM Confirm % Inhibition 20 uM
[2] = primary screen, 20 μM, intracellular, read-out: Primary QIM % Inhibition
[3] = read-out: Primary QIM % Inhibition
[4] = read-out: QIM Confirm % Inhibition 20 uM

With c1cc2c3c(cccc3c1)NC1(CCCCCC1)N2 [IPK 000 141 61] the inhibition at 20 µM [1] was 50.8% and the inhibition at 20 µM [2] was 4.2%.

Work on CCCC(C)c1ccc(OCC(=O)N/N=C/c2ccsc2)cc1 (stereo not shown) [IPK 000 148 11] yielded an inhibition at 20 µM [1] of 86.6% and an inhibition at 20 µM [2] of 65.4%.

CCCC(=O)Nc1ccc(-c2csc(N/N=C/c3ccc(SC)cc3)n2)cc1 [IPK 000 163 51] showed an inhibition at 20 µM [1] of 50% and an inhibition at 20 µM [2] of 89.4%.

O=C(Nc1ccc(F)cc1)Nc1ccc(C(F)(F)F)cc1 [IPK 000 147 17] gave an inhibition at 20 µM [1] of 40.8% and an inhibition at 20 µM [2] of 11.9%.

Work on O=C(NCCC1=CCCCC1)C(=O)Nc1cccc(F)c1 [IPK 000 133 46] yielded an inhibition at 20 µM [1] of 94.4% and an inhibition at 20 µM [2] of 69.6%.

Cc1ccc2nc(-c3ccc(NC(=O)CN4CCCC4)cc3)sc2c1 [IPK 000 125 61] gave an inhibition at 20 µM [1] of 85.8% and an inhibition at 20 µM [2] of 44.1%.

ON=C(/C=C/c1ccccc1)/C=C/c1ccccc1 [IPK 000 168 10] gave an inhibition at 20 µM [1] of 65.6% and an inhibition at 20 µM [2] of 38%.

For O=C(Nc1ccc(C(F)(F)F)cc1)Nc1cccc(Cl)c1 [IPK 000 147 54], the inhibition at 20 µM [1] was 10.1% and the inhibition at 20 µM [2] was -10.9%.

With CC1=NN(c2ccc([N+](=O)[O-])cc2)C(=O)/C1=N/Nc1c(Cl)cc([N+](=O)[O-])cc1Cl [IPK 000 179 49] the inhibition at 20 µM [3] was 65.7% and the inhibition at 20 µM [4] was 78.5%.

Molecule CC12CC3CC(C)(C1)CC(NC(=O)c1ccc(N4CCCC4)c([N+](=O)[O-])c1)(C3)C2 [IPK 000 230 02] has an inhibition at 20 µM [3] of -7.7% and an inhibition at 20 µM [4] of 40.5%.

Cc1ccccc1C(=O)NNC(=O)c1cc([N+](=O)[O-])cc([N+](=O)[O-])c1 [IPK 000 169 30] gave an inhibition at 20 µM [3] of 56.2% and an inhibition at 20 µM [4] of 73.7%.

Oc1ccccc1/N=C/c1ccc(OCc2ccccc2)cc1 [IPK 000 169 86] gave an inhibition at 20 µM [1] of 13% and an inhibition at 20 µM [2] of 0.5%.

Work on O=[N+]([O-])c1ccc(CSc2nnnn2C2CCCCC2)cc1 [IPK 000 258 07] yielded an inhibition at 20 µM [1] of 72.7% and an inhibition at 20 µM [2] of 49.9%.

Molecule CCCCNC(=O)c1cc([N+](=O)[O-])cc([N+](=O)[O-])c1 [IPK 000 046 87] has an inhibition at 20 µM [3] of 74.4% and an inhibition at 20 µM [4] of 56.3%.

O=[N+]([O-])c1ccc(O)c(-c2cc(C(F)(F)C(F)F)[nH]n2)c1 [IPK 000 164 52] was tested, and the inhibition at 20 µM [1] was 80% and the inhibition at 20 µM [2] was 64.7%.

With COc1ccc(/C=N/NC(=O)c2ccncc2)cc1 [IPK 000 219 28] the inhibition at 20 µM [1] was 46.2% and the inhibition at 20 µM [2] was 106%.

Molecule O=C(CCCCC1=CCCS1)Nc1ccc(C(F)(F)F)cc1 [IPK 000 148 64] has an inhibition at 20 µM [1] of 71.4% and an inhibition at 20 µM [2] of 72.5%.

With Cc1ccoc1/C=N/NC(=O)c1ccncc1 [IPK 000 193 76] the inhibition at 20 µM [1] was 97.4% and the inhibition at 20 µM [2] was 81.4%.

With CCc1cccc(NC(=O)c2cccs2)c1 [IPK 000 257 61] the inhibition at 20 µM [1] was 79.9% and the inhibition at 20 µM [2] was 71.5%.

Molecule CSc1ccc(/C=N/Nc2nc(-c3ccc(NC(C)=O)cc3)cs2)cc1 [IPK 000 163 67] has an inhibition at 20 µM [1] of 99.5% and an inhibition at 20 µM [2] of 68.1%.

Molecule CC(C)c1ccc(OCC(=O)N/N=C\c2ccccc2OCC(=O)O)cc1 [IPK 000 138 43] has an inhibition at 20 µM [1] of 78.9% and an inhibition at 20 µM [2] of 76.3%.

CC1=NN(C(N)=S)C(=O)/C1=N/Nc1ccc(O)cc1 [IPK 000 171 84] was tested, and the inhibition at 20 µM [1] was 13.3% and the inhibition at 20 µM [2] was -79.6%.

Molecule Cc1ccsc1/C=C/c1ccccc1O [IPK 000 179 05] has an inhibition at 20 µM [1] of 16.6% and an inhibition at 20 µM [2] of -31.7%.

COc1ccc(/C=N/Nc2nc(-c3ccccc3)cs2)cc1 [IPK 000 163 62] showed an inhibition at 20 µM [1] of 107% and an inhibition at 20 µM [2] of 81.3%.

COc1ccc(/C=N/Nc2nc(-c3ccc(NC(C)=O)cc3)cs2)cc1 [IPK 000 163 52] was tested, and the inhibition at 20 µM [1] was 70.7% and the inhibition at 20 µM [2] was 86.2%.

O=C(NCCC1=CCCCC1)c1ccc(Br)o1 [IPK 000 184 56] was tested, and the inhibition at 20 µM [1] was 72.7% and the inhibition at 20 µM [2] was 85.1%.

CC1=NN(C(N)=S)C(=O)/C1=N/Nc1ccc(C)cc1 [IPK 000 168 31] was tested, and the inhibition at 20 µM [1] was 78.1% and the inhibition at 20 µM [2] was 83.9%.

Cc1cc(OCC(=O)NN)ccc1Br [IPK 000 192 59] showed an inhibition at 20 µM [1] of 81.1% and an inhibition at 20 µM [2] of 65.3%.

Molecule O=C(COc1ccc(F)cc1)N/N=C/c1ccc([N+](=O)[O-])o1 [IPK 000 148 04] has an inhibition at 20 µM [1] of 59.3% and an inhibition at 20 µM [2] of 21.8%.

C/C(=N\NC(=O)c1ccccc1)c1ccc2ccccc2c1 [IPK 000 139 17] gave an inhibition at 20 µM [1] of 65.8% and an inhibition at 20 µM [2] of 72.9%.

Work on O=C(CCC(=O)Nc1ccccc1)N/N=C/c1ccc([N+](=O)[O-])o1 [IPK 000 262 39] yielded an inhibition at 20 µM [1] of 29.5% and an inhibition at 20 µM [2] of 2.1%.

O=[N+]([O-])c1ccc(/C=N/N(CCO)C2=NS(=O)(=O)c3ccccc32)o1 [IPK 000 222 32] gave an inhibition at 20 µM [1] of 63.2% and an inhibition at 20 µM [2] of 16.2%.

For O=C(Nc1ccc(Br)c(Cl)c1)c1cccs1 [IPK 000 169 42], the inhibition at 20 µM [1] was 76.9% and the inhibition at 20 µM [2] was -64%.

Molecule O=C(Nc1ccc(Cl)c(Cl)c1)c1ccc(Cn2cc(Br)cn2)cc1 [IPK 000 180 17] has an inhibition at 20 µM [1] of 34.5% and an inhibition at 20 µM [2] of 63.2%.

COc1ccccc1N1CCN(C(=O)c2ccc([N+](=O)[O-])o2)CC1 [IPK 000 235 12] was tested, and the inhibition at 20 µM [1] was 26.9% and the inhibition at 20 µM [2] was -67.9%.

NNC(=O)c1ccc(COc2ccc(Cl)cc2)o1 [IPK 000 140 87] gave an inhibition at 20 µM [1] of 91.1% and an inhibition at 20 µM [2] of 92.2%.

For COc1ccc(/C=C2\c3ccccc3-c3ccc(C(=O)CCCCN4CCCCC4)cc32)cc1OC [IPK 000 198 54], the inhibition at 20 µM [1] was 77.9% and the inhibition at 20 µM [2] was 38.6%.

Molecule CC(C)CCNC(=O)c1cccc(Cl)c1 [IPK 000 210 79] has an inhibition at 20 µM [1] of 28.7% and an inhibition at 20 µM [2] of 77.2%.

With O=[N+]([O-])c1cc(-c2nnc(-c3ccccc3)o2)cc([N+](=O)[O-])c1 [IPK 000 150 85] the inhibition at 20 µM [3] was 72.3% and the inhibition at 20 µM [4] was 72.2%.

For O=C(/C=C/c1ccccc1F)c1ccc(Cl)cc1 [IPK 000 172 35], the inhibition at 20 µM [1] was 59.9% and the inhibition at 20 µM [2] was 0.9%.

In the case of C=CCc1ccc(OCC(=O)N/N=C/c2ccc([N+](=O)[O-])o2)c(OC)c1 [IPK 000 148 44], the inhibition at 20 µM [1] is reported as 8.2% and the inhibition at 20 µM [2] is reported as -15.1%.

Cc1ccc(C)n1-c1ccc(C(=O)O)c(O)c1 [IPK 000 200 47] was tested, and the inhibition at 20 µM [1] was 19.1% and the inhibition at 20 µM [2] was 6.3%.

CSc1ccc(/C=N/c2ccccc2O)cc1 [IPK 000 169 96] was tested, and the inhibition at 20 µM [1] was 14.7% and the inhibition at 20 µM [2] was -50.2%.

For O=C(N/N=C/c1ccccc1)c1ccncc1 [IPK 000 219 27], the inhibition at 20 µM [1] was 57.4% and the inhibition at 20 µM [2] was 96.9%.

Molecule CC(C)(C)c1ccc(C(=O)NC2CCCCCCC2)cc1 [IPK 000 248 71] has an inhibition at 20 µM [1] of 79% and an inhibition at 20 µM [2] of 79.5%.

Work on O=C(Nc1nccs1)c1ccc(COc2ccc(F)cc2)o1 [IPK 000 141 08] yielded an inhibition at 20 µM [1] of 84% and an inhibition at 20 µM [2] of 67.5%.

Molecule O=C(Nc1ccc(Cl)c(Cl)c1)c1ccco1 [IPK 000 048 49] has an inhibition at 20 µM [3] of 84.5% and an inhibition at 20 µM [4] of 92.9%.

Molecule Cc1cc(C)nc(NC(=N)Nc2ccc(OCc3ccc(Cl)cc3)cc2)n1 [IPK 000 163 93] has an inhibition at 20 µM [1] of 89.9% and an inhibition at 20 µM [2] of 66.7%.

For O=C(COc1ccccc1)N/N=C/c1ccc([N+](=O)[O-])o1 [IPK 000 149 78], the inhibition at 20 µM [1] was 3.6% and the inhibition at 20 µM [2] was 15.2%.

Molecule O=C(CSC1=NCCS1)Nc1ccc(Br)cc1F [IPK 000 150 41] has an inhibition at 20 µM [1] of 83.3% and an inhibition at 20 µM [2] of 78.3%.
